Assay results taken from publication PMC5421464, “Characterization of the single-subunit oligosaccharyltransferase STT3A from Trypanosoma brucei using synthetic peptides and lipid-linked oligosaccharide analogs” (Glycobiology, 2017).

Experiments:
TbSTT3A = target: T1, TbSTT3A (Trypanosoma brucei, UniProt Q57W34); experiment: In vitro glycosylation assay, turnover rate of acceptor peptides (Tricine SDS-PAGE fluorescence); format: biochemical; conditions: 50 µM donor, overnight incubation, vast excess substrate
T1 sequence (Q57W34 1-801): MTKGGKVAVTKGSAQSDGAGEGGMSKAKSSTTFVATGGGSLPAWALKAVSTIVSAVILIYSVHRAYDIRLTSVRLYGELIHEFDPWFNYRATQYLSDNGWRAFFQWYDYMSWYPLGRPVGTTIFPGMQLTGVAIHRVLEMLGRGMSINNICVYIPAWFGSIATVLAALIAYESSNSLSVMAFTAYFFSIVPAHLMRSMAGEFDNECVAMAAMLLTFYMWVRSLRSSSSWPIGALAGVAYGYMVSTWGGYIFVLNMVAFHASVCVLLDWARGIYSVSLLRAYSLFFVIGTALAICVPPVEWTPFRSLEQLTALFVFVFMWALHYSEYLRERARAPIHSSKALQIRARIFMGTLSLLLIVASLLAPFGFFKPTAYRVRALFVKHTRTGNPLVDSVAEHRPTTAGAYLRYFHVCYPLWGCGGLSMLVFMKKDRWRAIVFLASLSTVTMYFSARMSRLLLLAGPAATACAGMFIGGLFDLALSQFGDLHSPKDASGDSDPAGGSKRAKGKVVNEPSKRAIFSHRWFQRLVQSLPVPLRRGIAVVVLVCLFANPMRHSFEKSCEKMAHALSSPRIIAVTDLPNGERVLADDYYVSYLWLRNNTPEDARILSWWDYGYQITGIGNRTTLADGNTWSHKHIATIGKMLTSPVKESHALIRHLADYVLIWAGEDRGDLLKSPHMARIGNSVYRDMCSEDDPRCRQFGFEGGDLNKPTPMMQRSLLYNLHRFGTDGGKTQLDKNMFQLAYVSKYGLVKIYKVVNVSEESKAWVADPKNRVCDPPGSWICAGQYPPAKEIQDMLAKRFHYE
Description: Fig. 2. Optimization of the acceptor peptide sequence. (A) Synthetic acceptor peptides are shown in single letter code. The acceptor asparagine (zero position of the sequon) is indicated in red. Glycosylation experiments were performed and the fluorescently labeled substrate (G0) and product (G1) were quantified following Tricine SDS-PAGE analysis. (B) Turnover rates after fitting the time points by linear regression using PRISM. Error bars indicate standard error of the fitting. (C) Kinetic analysis of substrate peptides: glycosylation experiments were performed with 20 nM purified TbSTT3A, 50 µM farnesyl-PP-chitobiose, 10 mM MnCl2, 150 mM NaCl, 20 mM Hepes pH 7.5, 0.035% DDM, 0.007% CHS and different concentrations of peptides varying from 2 to 60 µM. Data points reflect the mean of three separate measurements. Error bars indicate standard deviations. Data were fitted by nonlinear regression according to the Michaelis–Menten formula using PRISM. This figure is available in black and white in print and in color at Glycobiology online.
Reaction mixtures contained 20 nM purified TbSTT3A protein, 50µM farnesyl-PP-GlcNAc or farnesyl-PP-chitobiose, 10 mM MnCl2, 150 mM NaCl, 20 mM Hepes pH 7.5, 0.035% DDM, 0.007% CHS and 20 µM of the peptide. Reactions were incubated at 30°C. Samples were taken at different time points and reactions were stopped by the addition of 4X SDS Laemmli buffer. Samples were diluted 200-fold prior to analysis by Tricine SDS-PAGE consisting of a 16% resolving gel with 6 M urea, a 10% spacer gel and a 4% stacking gel ([Schägger 2006]). Fluorescent bands for peptide and glycopeptide were visualized by using a Typhoon Trio Plus imager (GE Healthcare) with excitation set at 488 nm and using a 526 nm SP emission filter. The amount of formed glycopeptide was determined from band intensities of fluorescence gel scans (ImageJ) ([Gerber et al. 2013]). Turnover rate determination was performed by fitting of the data to linear regression using PRISM software.
Supplementary Figure 2: Glycosylation Assays with farnesyl-PP-GlcNAc. In vitro glycosylation experiments were performed with 20nM purified TbStt3A purified protein, 50µM Farnesyl-PP-GlcNAc or Farnesyl-PP-GlcNac2, 10 mM MnCl2, 150 mM NaCl, 20 mM Hepes pH 7.5, 0.035% DDM, 0.007% CHS and 10 µM of the peptide P1.

PglB = PglB (Campylobacter lari, UniProt B9KDD4); experiment: In vitro substrate test with PglB; format: biochemical; conditions: data not shown
bacterial flippase PglK = tested on: bacterial flippase PglK; set-up: method as in Perez et al. 2015; conditions: in detergent; ref Perez et al. 2015; cited from earlier work
[1] = tested on: octa-subunit OST complex from pig liver; set-up: method as in Bause et al. 1995; conditions: ref Bause et al. 1995; cited from earlier work
[2] = tested on: octa-subunit OST complex from yeast; set-up: method as in Tai and Imperiali 2001; conditions: ref Tai and Imperiali 2001; cited from earlier work
[3] = substrate: CC(=O)NC1C(OC2C(CO)OC(OP(=O)(O)OP(=O)(O)OCCC(C)CCC=C(C)CCC=C(C)CCC=C(C)C)C(NC(C)=O)C2O)OC(CO)C(O)C1O; experiment: Michaelis-Menten kinetics of the LLO analogs; format: biochemical, Trypanosoma brucei; conditions: other: 20 nM TbSTT3A, 10 µM acceptor peptide, varying LLO analog concentration; pH 7.5
Description: (§1) Fig. 3. (A) Structure of the LLO analogs synthesized (1a) (S)-Citronellyl-PP-Chitobiose, C10; (1b) farnesyl-PP-chitobiose, C15; (1c) (S)-NerylCitronellyl-PP-chitobiose, C20; (1d) (S)-farnesylCitronellyl-PP-chitobiose, C25. (B) Kinetic analysis of synthetic LLO analogs. Glycosylation experiments were performed with 20 nM purified TbSTT3A, 10 µM […], 10 mM MnCl2, 150 mM NaCl, 20 mM Hepes pH 7.5, 0.035% DDM, 0.007% CHS and different concentrations of synthetic LLO analogs. Data points reflect the mean of 3 separate measurements. Error bars indicate standard deviations. Data were fitted by nonlinear regression according to the Michaelis–Menten formula using PRISM software. This figure is available in black and white in print and in color at Glycobiology online.
(§2) For Michaelis–Menten kinetics of the LLO analogs, reaction mixtures containing 20 nM TbSTT3A protein, 10 µM peptide P11, 10 mM MnCl2, 150 mM NaCl, 20 mM Hepes pH 7.5, 0.035% DDM and 0.007% CHS were incubated with different concentrations of LLO analogs (10–900 µM, for 1a; 2–60 µM, for 1b; 1–50 µM, for 1c and 1–20 µM, for 1d). Samples were taken at different time points and turnover rates of the reactions were determined as before. Data were fitted by nonlinear regression according to the Michaelis–Menten formula using PRISM software.

[4] = substrate: CC(=O)N[C@H]1[C@@H](OP(=O)(O)OP(=O)(O)OC/C=C(\C)CC/C=C(\C)CCC=C(C)C)O[C@H](CO)[C@@H](O[C@@H]2O[C@H](CO)[C@@H](O)[C@H](O)[C@H]2NC(C)=O)[C@@H]1O; experiment: Michaelis-Menten kinetics of the LLO analogs; format: biochemical, Trypanosoma brucei; conditions: other: 20 nM TbSTT3A, 10 µM acceptor peptide, varying LLO analog concentration; pH 7.5
Description: as §1, §2

[5] = substrate: CC(=O)N[C@H]1[C@@H](OP(=O)(O)OP(=O)(O)OCC[C@@H](C)CC/C=C(/C)CC/C=C(\C)CC/C=C(\C)CCC=C(C)C)O[C@H](CO)[C@@H](O[C@@H]2O[C@H](CO)[C@@H](O)[C@H](O)[C@H]2NC(C)=O)[C@@H]1O; experiment: Michaelis-Menten kinetics of the LLO analogs; format: biochemical, Trypanosoma brucei; conditions: other: 20 nM TbSTT3A, 10 µM acceptor peptide, varying LLO analog concentration; pH 7.5
Description: as §1, §2

[6] = substrate: [H][C@@]1(O[C@H]2[C@H](O)[C@@H](NC(C)=O)[C@@H](OP(=O)(O)OP(=O)(O)OCC[C@@H](C)CCC=C(C)C)O[C@@H]2CO)O[C@H](CO)[C@@H](O)[C@H](O)[C@H]1NC(C)=O; experiment: Michaelis-Menten kinetics of the LLO analogs; format: biochemical, Trypanosoma brucei; conditions: other: 20 nM TbSTT3A, 10 µM acceptor peptide, varying LLO analog concentration; pH 7.5
Description: as §1, §2

Chain of PglB (B9KDD4 whole entry): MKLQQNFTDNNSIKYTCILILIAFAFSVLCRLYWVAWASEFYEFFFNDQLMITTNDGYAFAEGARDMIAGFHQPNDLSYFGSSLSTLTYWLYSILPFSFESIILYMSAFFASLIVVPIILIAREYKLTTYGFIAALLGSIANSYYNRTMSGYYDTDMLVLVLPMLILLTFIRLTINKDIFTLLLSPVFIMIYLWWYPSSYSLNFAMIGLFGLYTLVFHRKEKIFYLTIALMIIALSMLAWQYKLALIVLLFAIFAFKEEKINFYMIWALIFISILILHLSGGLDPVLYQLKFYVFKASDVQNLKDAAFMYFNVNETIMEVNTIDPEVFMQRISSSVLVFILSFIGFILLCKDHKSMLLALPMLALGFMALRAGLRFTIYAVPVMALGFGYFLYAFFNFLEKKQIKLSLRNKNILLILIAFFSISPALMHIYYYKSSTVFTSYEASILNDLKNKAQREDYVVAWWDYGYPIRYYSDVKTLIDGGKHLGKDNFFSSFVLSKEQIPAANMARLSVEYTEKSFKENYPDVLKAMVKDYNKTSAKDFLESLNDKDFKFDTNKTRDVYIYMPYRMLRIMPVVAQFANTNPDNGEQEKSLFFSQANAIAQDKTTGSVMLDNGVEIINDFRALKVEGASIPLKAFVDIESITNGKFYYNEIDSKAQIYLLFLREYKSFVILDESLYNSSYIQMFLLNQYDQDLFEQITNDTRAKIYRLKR

CC(=O)NC1C(OP(=O)(O)OP(=O)(O)OCC=C(C)CCC=C(C)CCC=C(C)C)OC(CO)C(O)C1O (stereo not shown) [farnesyl-PP-GlcNAc, reference compound]
Donor substrate for TbSTT3A (glycopeptide product formation) (TbSTT3A): no glycopeptide product was observed
Donor substrate for TbSTT3A (glycopeptide product formation) (TbSTT3A; listed as farnesyl-PP-GlcNac): not recognized as a substrate
In vitro substrate of PglB (PglB): accepted as an in vitro substrate
Effect on ATPase activity of PglK (bacterial flippase PglK): stimulated ATPase activity

Dol-PP-GlcNAc
Recognition as donor substrate in vitro [1]: poor donor
Recognition as donor substrate in vitro [2]: poor donor

B1: TbSTT3A (Trypanosoma brucei brucei TREU927) (protein)
chain: T1 sequence (Q57W34 1-801)
Km [3]: 5.3 ± 0.9 µM
Km [4]: 5.6 ± 0.8 µM
Km [5]: 2.5 ± 0.3 µM
Km [6]: 95 ± 18 µM
